Data published in patent US20210093715A1, “ANTI-ANGIOGENESIS THERAPY FOR THE TREATMENT OF BREAST CANCER” (Genentech, Inc., priority 2008, published 2021).
Read-outs that look alike come from different tables or passages of the source.

What was measured:
[1] = tested on: previously untreated locally recurrent or metastatic HER2-negative breast cancer
Description: (§1) The primary objective of the study was to determine the clinical benefit of the addition of bevacizumab to standard chemotherapy regimes for previously untreated metastatic breast cancer, as measured by PFS based on investigator tumor assessment. See, e.g., O'Shaughnessy and Brufsky, (2008), Clinical Breast Cancer, 8(4): 370-373. The trial comprised two study groups that evaluated AVASTIN® with different types of chemotherapies in women who had not previously received chemotherapy for their advanced HER2-negative breast cancer. In the first study group, women received either AVASTIN or placebo in combination with taxane or anthracycline-based chemotherapies. In the second study group, women received either AVASTIN or placebo in combination with capecitabine chemotherapy. The analysis of this example was based on information from 1237 patients. These trials evaluated the efficacy of bevacizumab (AVASTIN®) as therapy for patients previously untreated metastic breast cancer.
(§2) In the RIBBON1 trial, the following treatment protocol was used:
(§3) Arm A: bevacizumab 15 mg/kg IV on day 1 of each 21-day cycle and either cohort 1, cohort 2 or cohort 3;
(§4) Arm B: placebo IV on day 1 of each 21-day cycle and either cohort 1, cohort 2 or cohort 3.
(§5) Cohort 1: Either of the following taxanes administered every 3 weeks
(§6) Cohort 2: Any of the following anthracycline-based combination chemotherapies, for subjects previously untreated with anthracyclines, every 3 weeks:
(§7) Cohort 3: Capecitabine 1000 mg/m^2 oral twice daily on Days 1-14 of each 3-week cycle.
(§8) The secondary endpoints included objective response rate (ORR), one-year survival rate, overall survival (OS), and PFS based on IRC assessment and safety. OS is defined as the time from randomization until death from any cause. ORR is defined as the percentage of patients who achieved a complete or partial response confirmed ≥28 days after initial documentation of response. One-year survival rate is assessed between treatment arms using the normal approximation method. ORR in patients with measurable disease at baseline is compared using the stratified Mantel-Haenszel χ2 test. Randomization stratification factors are included in all stratified analyses.

[2] = tested on: previously treated metastatic breast cancer; conditions: capecitabine + bevacizumab vs capecitabine alone; cited from earlier work
metastatic breast cancer [3] = conditions: docetaxel + bevacizumab (7.5 and 15 mg/kg q3w) vs docetaxel alone; cited from earlier work
[4] = tested on: previously untreated locally recurrent or metastatic HER2-negative breast cancer; assay: RIBBON1 randomized phase III trial, efficacy (PFS, ORR, OS) of bevacizumab or placebo with chemotherapy; format: in vivo, human; conditions: for % of deaths: overall survival analysis; for ORR (%) / ORR, number of patients with objective response: patients with measurable disease; for median duration of objective response: among responders; for PFS compared to chemotherapies alone (in words): bevacizumab added to capecitabine, taxane or anthracycline-based chemotherapy, 1st-line
Description: as §1, §2, §3, §4, §5
Paclitaxel protein-bound particles (Abraxane®) 260 mg/m^2 IV
as §6
FEC: 5-fluorouracil 500 mg/m^2 IV, epirubicin 90-100 mg/m^2 IV and cyclophosphamide 500 mg/m^2 IV on Day 1
FAC: 5-fluorouracil 500 mg/m^2 IV, doxorubicin 50 mg/m^2 IV and cyclophosphamide 500 mg/m^2 IV on Day 1
AC: Doxorubicin 50-60 mg/m^2 IV and cyclophosphamide 500-600 mg/m^2 IV on Day 1
EC: Epirubicin 90-100 mg/m^2 IV and cyclophosphamide 500-600 mg/m^2 IV on Day 1
as §7
All subjects had histologically or cytologically confirmed adenocarcinoma of the breast, subjects may have had either measureable (per the Response Evaluation Criteria in Solid Tumors (RECIST)) or non-measureable locally recurrent or metastatic disease. The locally recurrent disease was not amenable to resection with curative intent.
The trial was conducted worldwide (at least 22 countries) and accrued 1237 subjects/patients (Taxane (T): 307; Anthracycline (Anthra): 315; and Capecitabine (Cap): 615).
The primary endpoint of the study was progression free survival (PFS), defined as the time from randomization to disease progression or to death, based on investigator assessment. Kaplan-Meier methodology can be used to estimate median PFS for each treatment arm. In certain embodiments, the hazard ratio for PFS will be estimated using a stratified Cox regression model with the same stratification factors used in the stratified log-rank test. Analyses of PFS in each cohort is performed at the two-sided α=0.05 level. Time-to-event data are compared between treatment arms using a stratified log-rank test. The Kaplan-Meier method is used to estimate duration of time-to-event data. The 95% confidence intervals for median time-to-event are computed using the Brookmeyer-Crowley method. The HR for time-to-event data are estimated using a stratified Cox regression model.
as §8, with “test.” for “test. Randomization stratification factors are included in all stratified analyses.”

metastatic breast cancer [5] = conditions: weekly paclitaxel + bevacizumab vs paclitaxel alone; cited from earlier work
[6] = Cap cohort, BV arm = bevacizumab + capecitabine, PL arm = placebo + capecitabine, investigator assessment
[7] = Cap cohort, BV or placebo + capecitabine
[8] = Cap cohort, second PFS figure of b186, assessor not stated (FIG. 2 shows INV and IRC)
[9] = T/Anthra cohort, BV or placebo + taxane/anthracycline

## BV: recombinant humanized anti-VEGF monoclonal antibody, human IgG1 framework with CDRs from murine antibody A.4.6.1
[1]; Anthra cohort
  AEs leading to study drug (PL or BV) discontinuation: 14.3%
  SAEs: 22.4%
[1]; Cape cohort
  AEs leading to study drug (PL or BV) discontinuation: 11.9%
  SAEs: 24.3%
[1]; Taxane cohort
  AEs leading to death (excludes AEs related to metastatic breast cancer progression): 3.4%
  AEs leading to study drug (PL or BV) discontinuation: 24.1%
  SAEs: 41.4%
[1]; bevacizumab + chemotherapy, all cohorts
  Safety: consistent with results of prior bevacizumab trials
[2]
  PFS (primary objective): failed to meet its primary objective of improving PFS
  overall response rate (ORR): higher
Metastatic breast cancer [3]
  progression-free survival (PFS): longer
[4]; Anthra subgroup, BV or placebo + anthracycline-based chemotherapy
  mPFS, mo (median PFS): 9.2 mo
[4]; Anthra subgroup, BV vs PL
  PFS HR (95% CI): 0.55 (0.40-0.74)
[4]; [6]
  PFS Median (months): 8.6 months
[4]; [7]
  Median OS (months): 29.0 months
  ORR (%): (35.4%)
[4]; Cap cohort, bevacizumab 15 mg/kg q3w + capecitabine vs placebo + capecitabine, investigator assessment
  PFS HR (95% CI): 0.688
[4]; Cap cohort, bevacizumab + capecitabine vs placebo + capecitabine
  OS (HR, 95% CI): 0.85 (0.63-1.14)
[4]; Cap cohort, bevacizumab + capecitabine vs placebo + capecitabine, listed as B
  OS (HR, 95% CI): 0.847
[4]; Cap cohort
  % of deaths: 30%
[4]; [8]
  PFS: 9.7 months
[4]; Capecitabine cohort
  median duration of objective response: 9.2 months
[4]; T/Anthra cohort, BV arm = bevacizumab + taxane/anthracycline, PL arm = placebo + taxane/anthracycline, investigator assessment
  PFS Median (months): 9.2 months
[4]; [9]
  Median OS (months): 25.2 months
  ORR (%): (51.3%)
  ORR, number of patients with objective response: 177
[4]; T/Anthra cohort, bevacizumab 15 mg/kg q3w + taxane/anthracycline vs placebo + taxane/anthracycline, investigator assessment
  PFS HR (95% CI): 0.644
[4]; T/Anthra cohort, bevacizumab + taxane/anthracycline vs placebo + taxane/anthracycline
  OS (HR, 95% CI): 1.03 (0.77-1.38)
[4]; T/Anthra cohort, bevacizumab + taxane/anthracycline vs placebo + taxane/anthracycline, listed as B
  OS (HR, 95% CI): 1.032
[4]; T/Anthra cohort
  % of deaths: 34%
[4]; T/Anthra cohort, second PFS figure of b186, assessor not stated (FIG. 3 shows INV and IRC)
  PFS: 10.7 months
[4]; Taxane subgroup, BV or placebo + docetaxel or Abraxane
  mPFS, mo (median PFS): 9.2 mo
[4]; Taxane subgroup, BV vs PL
  PFS HR (95% CI): 0.75 (0.56-1.01)
[4]
  PFS compared to chemotherapies alone (in words): statistically-significant improvement in PFS
[4]; listed as AVASTIN®
  PFS compared to chemotherapies alone (in words): increased the time women lived without their disease advancing
[4]; taxane/anthracycline cohort
  median duration of objective response: 8.3 months
Metastatic breast cancer [5]
  progression-free survival (PFS): significantly longer

## CCCCCOC(=O)Nc1nc(=O)n([C@@H]2O[C@H](C)[C@@H](O)[C@H]2O)cc1F [Cap, capecitabine, reference compound]
[1]; Cape cohort
  AEs leading to death (excludes AEs related to metastatic breast cancer progression): 2.5%
[1]; female, human, in vivo
  AEs leading to study drug (PL or BV) discontinuation: 11.9%
  SAEs: 18.9%
  Selected AEs (previously shown to be associated with bevacizumab): 9.0%
[4]; Cap cohort
  1-yr survival rate (%): 74%
  % of deaths: 35%
[4]; [6]
  PFS Median (months): 5.7 months
[4]; [7]
  Median OS (months): 21.2 months
  ORR (%): (23.6%)
  ORR, number of patients with objective response: 38
[4]; [8]
  PFS: 6.2 months
[4]; Capecitabine cohort
  median duration of objective response: 7.2 months
